Earlier results in patent US10413512B2, “Nicotine-containing granulate” (priority 2008, dated 2019).

Assays:
[1] = oral administration
[2] = base form
[3] = in vivo

SMILES: CN1CCC[C@H]1c1cccnc1 [Nicotine, (S)-3-(1-Methyl-2-pyrrolidinyl)pyridine]
- oral bioavailability [1]: about 30%
- miscibility with water [2]: miscible with water
- half life in the body [3]: around two
